Results published in the NIST ThermoML archive (doi:10.1016/j.jct.2012.03.016).
“And” between values parts separate entries of the source, which are not always exact repeats. Identical values can stand only once.

What was measured:
[1] = Liquid, Closed cell (Static) method
[2] = excess molar enthalpy (molar enthalpy of mixing); xn = mol fraction of the nth substance listed; conditions: 303.15 K, 101.3 kPa, Liquid, Calvet calorimetry

COC(C)(C)C [2-methoxy-2-methylpropane]
[1]
Conditions	vapor or sublimation pressure [kPa]
263.15 K	6.245
263.53 K	6.4
273.15 K	10.67
273.34 K	10.8
283.15 K	17.41
283.27 K	17.6
293.15 K	27.25
293.25 K	27.4
303.15 K	41.16
303.22 K	41.2
313.15 K	60.22
313.24 K	60.3
323.15 K	85.65
323.21 K	85.8
333.15 K	118.78
333.19 K	119.2

CCCCOC [butyl methyl ether]
[1]
Conditions	vapor or sublimation pressure
262.99 K	3.2 kPa
263.15 K	3.194 kPa
273.04 K	5.7 kPa
273.15 K	5.704 kPa
283.07 K	9.6 kPa
283.15 K	9.688 kPa
293.1 K	15.6 kPa
293.15 K	15.74 kPa
303.12 K	24.4 kPa
303.15 K	24.61 kPa
313.15 K	37.17 kPa
313.16 K	36.8 kPa and 36.9 kPa
323.15 K	54.46 kPa
323.2 K	54 kPa
333.15 K	77.64 kPa
333.25 K	74.1 kPa

CCCCOC [butyl methyl ether] + C=CCCCC
[2]
Conditions	excess molar enthalpy [kcal/mol]
x2 = 0.0997	0.0055
x2 = 0.1966	0.011
x2 = 0.2897	0.0152
x2 = 0.3935	0.0193
x2 = 0.4933	0.0214
x2 = 0.5922	0.0217
x2 = 0.694	0.0205
x2 = 0.7912	0.0169
x2 = 0.8863	0.0105

C=CCCCC [hex-1-ene]
[1]
Conditions	vapor or sublimation pressure [kPa]
263.15 K	4.46
263.45 K	4.5
273.15 K	7.716
273.32 K	7.7
283.15 K	12.71
283.24 K	12.8
293.15 K	20.08
293.22 K	20.1
303.15 K	30.54
303.22 K	30.6
313.15 K	44.96
313.2 K	45
323.15 K	64.28
323.19 K	64.4
333.15 K	89.55
333.23 K	89.7

C=CCCCC [hex-1-ene] + COC(C)(C)C
[2]
Conditions	excess molar enthalpy [kcal/mol]
x1 = 0.1491	0.0209
x1 = 0.2162	0.0271
x1 = 0.3039	0.033
x1 = 0.4052	0.0369
x1 = 0.4892	0.0384
x1 = 0.6174	0.0379
x1 = 0.7128	0.0343
x1 = 0.788	0.0295
x1 = 0.8837	0.0198
